Test results taken from patent US20210330774A1, “HERV-K-DERIVED ANTIGENS AS SHARED TUMOR ANTIGENS FOR ANTI-CANCER VACCINE” (CENTRE LEON BERARD, priority 2018, published 2021).

Assays:
Format in all cases: cell-based, human
CD8+ T cells = experiment: Dextramer assay after 12-day peptide stimulation of PBMCs from HLA-A2 donors; details: for dextramer positive CD8+ T cells: representative plot, day 12, peptide-stimulated PBMCs; for ability to elicit a specific CD8+ T cell response: summary statement; for increase in dextramer positive CD8+ T cells, peptide stimulated versus non stimulated: FIG. 4B, 12 different donors, day 12
[1] = test system: T2 cells pulsed with the cognate peptide; experiment: ELISPOT for IFN-γ and Granzyme-β of peptide stimulated PBMCs co-cultured with T2 cells; details: 2.10^5 cells per well, ratio 10:1 with T2 cells, revealed after 24h
Method: C. Representative histograms of the number of IFN-γ+ and Granzyme-I3+ spots after 12 days stimulation and following 24h of contact with T2 cells pulsed with the cognate peptide.
Peptide stimulated PBMCs after the 12-day culture were used to perform an ELISPOT assay for IFN-γ and Granzyme-β (FIG. 2C). 2.10^5 cells per well were put in co-culture with T2 cell specific for the peptide of interest in a ratio 10:1.

[2] = test system: T2 cells pulsed with HERV peptide; experiment: Cytotoxicity assay with T2 cells contact (intracellular IFN-γ of CD8+ T cells, FACS); details: for IFN-γ production, percentage of CD8+ T cells (in median): FIG. 3B, 5 different donors, day 12, T2 cells pulsed with cognate peptide; for IFN-γ production, number of CD8+ T cells: FIG. 5B, 12 different donors, day 12
Method: On day 12 of PBMCs culture, T2 cells were washed in RPMI and resuspended into AIM-V medium (Thermo Fisher Scientific). T2 (SD Cell line) are a lymphoblast cell line deficient in the transporter associated with antigen processing (TAP) protein, and therefore cannot present endogenous peptides on the class I MHC, but can be used to monitor the CTL response to an exogenous antigen of interest in a non-competitive environment. T2 cells were first pulsed with HERV peptide by adding 10 μg/mL of corresponding peptide to 2M T2 cell for 2 hours at 37° C. PBMCs were pooled and counted and put in co-culture with corresponding T2 cells at a respective concentration of 1:5 into a new 96 U-well plate.
After 4 hours of incubation at 37° C., cells from co-culture were washed and pooled in V-well plate according to their staining condition in FACS buffer. Zombie NIR (Biolegend) was used at 1/400 to assess viability. Anti CD3 (PercP, Biolegend) and anti CD8 (FITC, Beckman coulter) antibodies were added 1/10 per condition and left for 25 minutes at 4° C. Cells were washed again and then fixed with fixation/permeabilization solution kit (Invitrogen, Carlasbad, USA) according to the manufacturer's instructions for 15 minutes at room temperature. Cells were washed two times in FACS buffer and kept at 4° c.
On day 13, cells were permeabilized with the permeabilization solution kit (Invitrogen) for 5 minutes at room temperature and anti IFN-γ (PE, Biolegend) antibody was added 1/20 to the solution for additional 25 minutes at 4° C. Cells were washed two times and resuspended in 350 μL of FACS buffer before FACS analysis. Analysis was performed on FACS Fortessa (BD) to explore the specific cytotoxicity and degranulation against T2 cells expressing HERV sequences.

[3] = test system: CD8+ T cells expanded from TNBC and ovarian tumor dilacerate; experiment: Dextramer staining of tumor infiltrated lymphocytes (TILs) from TNBC and ovarian cancer; details: day 14, FIG. 7
Method: Tumors were dilacerated in small pieces and digested with collagenase IV and DNAse for 45 minutes. The cells obtained were resuspended in 5% human serum RPMI and distributed in 96 well (5.10^4 cells per well). Anti-CD3/CD28 microbeads (Miltenyi biotech) were added to the well in a ratio of 1:4 with cells in the presence of IL-2 (F.C. 100 IU/ml). TILs were cultured for 14 days by changing medium at day 5, 7, 9 and 12 and the number of the cells was adapted to have 0.5×10^6 cells/ml.
At day 14 a dextramer staining was performed (see dextramer assay paragraph) for the 7 peptides of interest (P1 to P7—SEQ ID NO: 1 to 7) and dextramer specific CD8+ T cells were identified by FACS analysis in TNBC (FIG. 7A) and ovarian cancer (FIG. 7B).

Sequence	dextramer positive CD8+ T cells (CD8+ T cells; FIG. 2A)	ability to elicit a specific CD8+ T cell response (CD8+ T cells)	dextramer positive CD8+ T cells (CD8+ T cells; FIG. 4A)	increase in dextramer positive CD8+ T cells, peptide stimulated versus non stimulated (CD8+ T cells)	specific IFN-γ and Granzyme-β spots [1]	IFN-γ production, percentage of CD8+ T cells (in median) [2]	IFN-γ production, number of CD8+ T cells [2]	frequency of specific CD8+ T cells in the tumors [3]
AMIPKDWPL (HERV epitope 5) [P5]	34.2%	able to elicit a specific CD8+ T cell response	–	–	–	–	–	–
FLQFKTWWI (HERV epitope) [P1]	–	able to elicit a specific CD8+ T cell response	0.63%	significant increase	specific IFN-γ and Granzyme-β spots	~10%	significant number	more frequently represented
KLIDCYTFL (epitope 3) [P3]	–	able to elicit a specific CD8+ T cell response	–	slightly	–	~5%	significant number	–
RLIPYDWEI (epitope 2) [P2]	–	able to elicit a specific CD8+ T cell response	–	slightly	–	~5%	significant number	–
SMDDQLNQL (HERV epitope 7) [P7]	–	able to elicit a specific CD8+ T cell response	–	–	–	–	–	–
YAMSNLFSI (HERV epitope 6) [P6]	–	able to elicit a specific CD8+ T cell response	–	significant increase	specific IFN-γ and Granzyme-β spots	–	moderate number	more frequently represented
YLSFIKILL (HERV epitope 4) [P4]	–	able to elicit a specific CD8+ T cell response	–	significant increase	–	–	–	–
